Assay results as given in BindingDB's records for doi:10.1021/jm800052b (Genentech, 2008).

Tests used:
Aurora kinase B = Aurora kinase B (Homo sapiens, UniProt Q96GD4); test: Enzyme Inhibition Assay; conditions: pH 7.5; 22 °C
Protocol: (§1) Aurora kinase was assayed in ELISA format using a GST fusion of the N-terminus of Histone H3 as substrate. Plates were coated with substrate, and then blocked with I-block (Tropix) in PBS. After kinase reaction, product was detected by incubation with antiphosphohistone H3 (Ser10) 6G3 mouse monoclonal antibody and sheep-antimouse HRP conjugate, followed by washing and addition of TMB substrate.

Aurora kinase A = molecular target: T1, Aurora kinase A (Homo sapiens, UniProt O14965); test: Enzyme Inhibition Assay; conditions: pH 7.5; 22 °C
T1 sequence (O14965 whole entry): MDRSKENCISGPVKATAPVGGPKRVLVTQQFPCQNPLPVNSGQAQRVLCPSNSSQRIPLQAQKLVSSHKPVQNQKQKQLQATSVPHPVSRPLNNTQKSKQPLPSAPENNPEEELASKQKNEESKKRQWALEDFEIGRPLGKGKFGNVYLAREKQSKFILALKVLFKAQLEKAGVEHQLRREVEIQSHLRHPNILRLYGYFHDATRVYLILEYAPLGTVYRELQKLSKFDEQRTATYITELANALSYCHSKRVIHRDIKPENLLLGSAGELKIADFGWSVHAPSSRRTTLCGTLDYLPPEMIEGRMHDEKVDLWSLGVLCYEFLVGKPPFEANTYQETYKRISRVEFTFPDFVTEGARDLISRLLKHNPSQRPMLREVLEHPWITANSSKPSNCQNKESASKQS
Protocol: as §1

Aurora kinase B, sequence (Q96GD4 whole entry, the tested form may be a part): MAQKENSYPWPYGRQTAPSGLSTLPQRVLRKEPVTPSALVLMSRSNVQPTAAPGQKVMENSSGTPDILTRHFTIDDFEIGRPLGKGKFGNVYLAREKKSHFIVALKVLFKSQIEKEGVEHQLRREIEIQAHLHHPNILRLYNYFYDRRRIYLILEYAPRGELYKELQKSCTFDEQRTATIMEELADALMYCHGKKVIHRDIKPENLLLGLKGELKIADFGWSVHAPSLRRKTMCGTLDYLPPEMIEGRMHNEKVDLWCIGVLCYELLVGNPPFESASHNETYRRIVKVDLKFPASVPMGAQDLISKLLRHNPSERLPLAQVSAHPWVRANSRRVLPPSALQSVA

| IC50 (Aurora kinase B) [nM] | IC50 (Aurora kinase A) [nM] | Compound |
| --- | --- | --- |
| 22 | 42 | Cc1[nH]nc2c1CCCc1c-2[nH]c2ccccc12 [5-methyl-3,4,17-triazatetracyclo[8.7.0.0^{2,6}.0^{11,16}]heptadeca-1(10),2,5,11,13,15-hexaene] |
| < 2 |  | Cc1[nH]nc2c1CCCc1c-2[nH]c2cc3c(cc12)NC(=O)C3(C)C [7,7,16-trimethyl-5,11,14,15-tetraazapentacyclo[10.8.0.0^{2,10}.0^{4,8}.0^{13,17}]icosa-1(12),2,4(8),9,13,16-hexaen-6-one] |
